# How the values were obtained:
# α1-adrenoceptor = conditions: background statement; cited from earlier work
# α1A adrenoceptor = biological target: T1, α1A adrenoceptor (Rattus norvegicus, UniProt P43140); test: Radioligand binding, [3H] prazosin displacement, rat submaxillary membranes
# T1 construct: from tissue; host or cells: rat submaxillary gland membranes
# T1 sequence (P43140 1-466): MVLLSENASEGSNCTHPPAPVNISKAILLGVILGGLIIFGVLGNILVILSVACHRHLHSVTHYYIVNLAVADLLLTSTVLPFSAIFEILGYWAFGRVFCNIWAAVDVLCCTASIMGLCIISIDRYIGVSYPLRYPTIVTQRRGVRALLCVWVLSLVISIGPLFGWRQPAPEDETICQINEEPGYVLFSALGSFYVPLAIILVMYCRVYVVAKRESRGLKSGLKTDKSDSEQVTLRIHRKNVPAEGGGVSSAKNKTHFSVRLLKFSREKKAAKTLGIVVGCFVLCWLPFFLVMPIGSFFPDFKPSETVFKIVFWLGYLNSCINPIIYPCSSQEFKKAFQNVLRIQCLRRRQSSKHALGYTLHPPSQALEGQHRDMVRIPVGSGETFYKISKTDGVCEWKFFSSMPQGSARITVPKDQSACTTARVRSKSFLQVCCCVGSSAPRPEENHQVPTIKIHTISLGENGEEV
# Summary of the method: (§1)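 Displacement of [3H]prazosin measured by filtration and counting, with Ki from IC50 via Cheng–Prusoff and nonspecific binding set by 300 nM prazosin. Native rat submaxillary (α1A) or liver (α1B) membranes, 150-250 μg protein, 1 h at 24-25° C in Tris/EDTA pH 7.4.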
# α1B adrenoceptor = biological target: T2, α1B adrenoceptor (Rattus norvegicus, UniProt P15823); test: Radioligand binding, [3H] prazosin displacement, rat liver membranes; conditions: read-out: Affinity (Ki) α1B (Rat Liver)
# T2 construct: from tissue; host or cells: rat liver membranes
# T2 sequence (P15823 1-515): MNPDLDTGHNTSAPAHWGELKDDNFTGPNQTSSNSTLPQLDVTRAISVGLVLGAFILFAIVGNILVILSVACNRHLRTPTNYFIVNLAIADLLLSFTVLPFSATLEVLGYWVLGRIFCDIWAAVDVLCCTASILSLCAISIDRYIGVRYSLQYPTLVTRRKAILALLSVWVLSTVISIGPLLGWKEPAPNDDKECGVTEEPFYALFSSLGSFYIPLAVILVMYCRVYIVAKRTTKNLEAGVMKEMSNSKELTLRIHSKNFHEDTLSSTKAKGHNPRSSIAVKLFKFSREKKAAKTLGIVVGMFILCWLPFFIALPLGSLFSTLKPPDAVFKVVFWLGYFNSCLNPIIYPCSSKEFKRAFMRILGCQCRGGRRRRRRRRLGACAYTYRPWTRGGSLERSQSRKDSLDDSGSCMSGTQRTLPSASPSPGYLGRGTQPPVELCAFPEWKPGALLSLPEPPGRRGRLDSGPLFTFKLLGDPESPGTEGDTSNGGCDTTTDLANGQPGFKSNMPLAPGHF
# Summary of the method: as §1
# [1] = biological target: T3, α1A adrenoceptor (prostate) (Rattus norvegicus, UniProt P43140); test: In vitro functional assay, isolated prostate, phenylepinephrine contraction; assay type: cell-based
# T3 construct: from tissue; host or cells: isolated prostate tissue
# T3 sequence (P43140 1-466): T1 sequence (P43140 1-466)
# Summary of the method: (§2)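 Rat aorta, spleen and prostate strips from urethane-anaesthetised male Wistar rats in Krebs-Henseleit at 37 °C (95% O2/5% CO2), 2 g or 1 g resting tension, 2 h equilibration. Norepinephrine (aorta) or phenylephrine (spleen, prostate) contraction curves run without and with compound at […]; antagonist affinity given as pKB.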
# [2] = biological target: T4, α1B adrenoceptor (spleen) (Rattus norvegicus, UniProt P15823); test: In vitro functional assay, isolated spleen, phenylepinephrine contraction; assay type: cell-based; conditions: read-out: α Adrenoceptor Subtype (pKB) α1B (converted)
# T4 construct: Isolated tissues were mounted in organ bath containing Krebs Henseleit buffer; from tissue; host or cells: isolated rat spleen
# T4 sequence (P15823 1-515): T2 sequence (P15823 1-515)
# Text: In order to study selectivity of action of these compounds towards different a-adrenoceptor subtypes, the ability of these compounds to antagonise (α1D) prostate (α1A) and spleen (α1B) was studied. Aorta and spleen tissues were isolated from urethane anaesthetized (1.5 g/kg) male wister rats. Isolated tissues were mounted in organ bath containing Krebs Henseleit buffer of the following composition (mM): NaCl 118; KCl 4.7; CaCl2 2.5; MgSO4 7H2O 1.2; NaHCO3 25; KH2PO4 1.2; glucose 11.5. Buffer was maintained at 37° C. and aereated with a mixture of 95% O2 and 5% CO2. A resting tension of 2 g (aorta) or 1 g (spleen and prostate) was applied to tissues. Contractile response was monitored using a force displacement transducer and recorded on chart recorders. Tissues were allowed to equilibrate for 2 hours. At the end of equilibration period, concentration response curves to norepinephrine (aorta) and phenylepinephrine (spleen and prostate) were obtained in the absence and presence of tested compound (at concentration of […]). Antagonist affinity was calculated and expressed as pKB values in Table II.
# α1D adrenoceptor (aorta) = biological target: T5, α1D adrenoceptor (aorta) (Rattus norvegicus, UniProt P23944); test: In vitro functional assay, isolated aorta, norepinephrine contraction; assay type: cell-based; conditions: read-out: α Adrenoceptor Subtype (pKB) α1D (converted)
# T5 construct: Isolated tissues were mounted in organ bath containing Krebs Henseleit buffer; from tissue; host or cells: isolated rat aorta
# T5 sequence (P23944 1-561): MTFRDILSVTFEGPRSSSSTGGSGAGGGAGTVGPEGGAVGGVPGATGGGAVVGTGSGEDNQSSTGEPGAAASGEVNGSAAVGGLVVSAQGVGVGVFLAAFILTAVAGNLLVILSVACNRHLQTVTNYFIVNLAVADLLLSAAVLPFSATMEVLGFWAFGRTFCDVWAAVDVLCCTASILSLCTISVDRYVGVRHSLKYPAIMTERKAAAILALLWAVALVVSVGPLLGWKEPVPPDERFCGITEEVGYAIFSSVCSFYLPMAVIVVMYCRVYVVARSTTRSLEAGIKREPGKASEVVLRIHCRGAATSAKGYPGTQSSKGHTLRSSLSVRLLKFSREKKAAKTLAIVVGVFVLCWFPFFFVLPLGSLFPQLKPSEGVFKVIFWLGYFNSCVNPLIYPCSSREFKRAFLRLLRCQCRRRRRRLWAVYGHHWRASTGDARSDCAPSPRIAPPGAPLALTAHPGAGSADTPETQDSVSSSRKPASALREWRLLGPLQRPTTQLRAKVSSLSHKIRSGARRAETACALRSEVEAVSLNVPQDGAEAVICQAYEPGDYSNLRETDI
# Summary of the method: as §2
"Ki (α1A adrenoceptor; [3H] prazosin displacement, rat submaxillary membranes, read-out: Affinity (Ki) α1A (Rat Submaxillary)) [nM]","α1B/α1A (α1A adrenoceptor; ratio of binding affinities, rat liver / rat submaxillary)",Ki (α1B adrenoceptor) [nM],"Selectivity α1B/α1A ([1]; functional, from pKB)","Selectivity α1D/α1A ([1]; functional, from pKB)","Kb ([1]; rat prostate, phenylepinephrine, read-out: α Adrenoceptor Subtype (pKB) α1A (converted)) [nM]",Kb [2] [nM],Kb (α1D adrenoceptor (aorta)) [nM],melting point [°C],SMILES,α1-adrenergic blocking activity (pKi) (α1-adrenoceptor)
,,,,,,,,,COc1cc2nc(N3CCN(C(=O)c4ccco4)CC3)nc(N)c2cc1OC [prazosin],> 8
22,>45,> 1000,2.9,33,2.45,7.08,81.3,75 to 80,"CCOc1ccccc1N1CC[N+]([O-])(CCCN2C(=O)C3CC=CCC3C2=O)CC1 (stereo not shown) [compound 04, 2-[3-{4-(2-Ethoxyphenyl)piperazin-1-yl, 1-N-oxide}propyl]-3a,4,7,7a-tetrahydro-1H-isoindole-1,3(2H)-dione]",

# Source: patent publication US20050228180A1, “Alpha, omega-dicarboximide derivatives as useful uro-selective a1a adrenoceptor blockers” (priority 2002, published 2005)
